Data published in patent publication US20260069656A1, “Nutritive Polypeptides and Formulations Thereof, and Methods of Production and Use Thereof” (Axcella Health Inc., priority 2013, published 2026).

What was measured:
Zucker fatty rats = test: OGTT in Zucker fatty rats, SEQID-00105 vs alogliptin vs combination (glucose 2 g/kg); type: in vivo, rat
Protocol: In another experiment, an OGTT was performed in 24, fasted, male Zucker fatty rats with indwelling jugular vein catheters (JVC) to assess the acute effects of nutritive protein dosing on glycemic control as well as insulin and GLP-1 levels. The capacity of SEQID-00105 to improve glucose control was tested by comparing the blood glucose excursion of SEQID-00105 to alogliptin to SEQID-00105+alogliptin to vehicle in the context of an oral glucose tolerance test. All rodents were approximately 10-11 weeks old, weighed average of approximately 430 g and acclimated for 4-5 days prior to testing. Prior to treatment, all rats were fasted overnight for fourteen hours. […] N=6 rats per treatment group. The error bars shown are the standard errors of the mean. Each group was compared post hoc on GraphPad Prism 6, two-way ANOVA, Dunnett's multiple comparisons test first comparing within each group to the fasting glucose concentration, followed by a comparison of each time point to vehicle. […] The integrated area under curve (AUC) was calculated on Microsoft Excel using the Linear-Log Trapezoidal Method and two-way ANOVA and Dunnett's multiple comparisons tests was conducted on GraphPad Prism 6.03.

healthy subjects = conditions: oral supplementation vs. control; cited from earlier work
burn injury = conditions: 0.35 g/kg, cited from earlier work
5-HT production = conditions: oral intake of free Tryptophan; cited from earlier work
[1] = test system: mTORC1 (phosphorylation of ribosomal protein S6, rps6); test: AlphaScreen SureFire Ribosomal Protein S6 assay in primary rat skeletal muscle cells; type: cell-based
Text: Primary Rat Skeletal Muscle Cell (RSKMC) culture medium was purchased from Cell Applications (Catalog number: R150-500, San Diego, CA). Starvation medium DMEM/F12 was bought from Sigma (Catalog number: D9785, St. Louis, MO). […] Fetal bovine serum (FBS) and other growth factors were obtained from Cell Applications (Catalog number: R151-GS, San Diego, CA). Tissue culture flasks and clear bottom 96-well tissue culture plates were purchased from Corning Incorporated (Catalog number: 430641 and 353072, respectively, Corning, NY). Trypsin/EDTA was obtained from Life Technology (Catalog number: 25200, Grand Island, NY). DPBS and HBSS were also purchased from Life Technologies (Catalog number: 14190, 14175, respectively). AlphaScreen® SureFire® Ribosomal Protein S6 Assay Kits was obtained from Perkin Elmer (Catalog number: TGRS6P2S10K).
Primary Rat Skeletal Muscle Cell (RSKMC) culture. RSKMC were isolated using protocol described herein and cryopreserved in liquid nitrogen. The cells were also maintained in RSKMC medium (Cell Applications) in T75 tissue flask in a 37° C., 5% CO2 tissue culture incubator (Model 3110, Thermo Fisher Scientific). The cells were split every three day when they reached ˜90% confluency. RSKMC cells were cultured in RSKMC medium in T75 tissue flask to 100% confluency. The culture medium was aspirated from the culture flask and rinsed once with 10 ml of DPBS, and then 1.5 ml of 0.25% trypsin/EDTA was added to the cells. After the cells were detached from the flask, 10 ml of culture medium were added. The medium was pipetted up and down with a 10 ml pipet to detach the cells from the flask. The cells were then seeded into clear bottom 96-well tissue culture plates at a density of 50,000 cells per well. Following overnight culture in a 37° C., 5% CO2 incubator, the cells were starved over a period of 4 hours with starvation DME/F12 medium without FBS and leucine in a 37° C., 5% CO2 tissue culture incubator, then starved for another hour incubation with Hank's Buffered Salt Solution (HBSS). […]

[2] = Intact half-life during simulated gastric fluid (SGF) digestion; conditions: SGF pH 1.5, pepsin:polypeptide 1:20 w/w, 37° C.; produced in E. coli unless otherwise noted
[3] = Thermostability, ProteoStat Thermal Shift Stability Kit, temperature of aggregation; type: physicochemical; conditions: pH 7.1; heated from 25° C. to 95° C.
Protocol: Thermostability. The thermostability of proteins in a buffer cocktail of Citric Acid and Dibasic Sodium Phosphate over a pH range of 2.8 to 7.1 (preparation described above in Table E31B) was determined using the ProteoStat® Thermal Shift Stability Kit (Enzo Life Sciences) according to the manufacturer's standard protocol. Briefly, protein solutions (˜10 mg/ml) containing 1× ProteoStat TS Detection Reagent were heated from 25° C. to 95° C. at a rate of 0.5° C. per 30 sec using a real-time PCR (rtPCR) thermocycler (BioRad) equipped with a plate reader (SynergyMx, Biotek) while monitoring the fluorescence with a Texas Red filter.

Cn1c(=O)cc(N2CCC[C@@H](N)C2)n(Cc2ccccc2C#N)c1=O [Alogliptin]
glucose AUC vs vehicle (Zucker fatty rats; 0 to 120 minutes, P=0.0051): significantly less than vehicle
glucose AUC vs vehicle (Zucker fatty rats; 0 to 240 minutes, P=0.0054): significantly less than vehicle
blood glucose vs vehicle (Zucker fatty rats; 30 minutes following glucose challenge): significantly lower blood glucose than vehicle
blood glucose vs vehicle (Zucker fatty rats; 60 minutes following glucose challenge): significantly lower than vehicle

N=C(N)NCCC[C@H](N)C(=O)O [Arginine]
increase in collagen deposition at wound sites (healthy subjects): 2.4 ×

NC(=O)CC[C@H](N)C(=O)O [Glutamine]
decrease in Lactulose/mannitol ratio (burn injury; after 3 days, vs 5.5× decrease): 8.8 ×
reduction in hospital stay (burn injury): 6 days

N[C@@H](Cc1c[nH]c2ccccc12)C(=O)O [Tryptophan]
increase of 5-HT production (5-HT production): 2 fold

CC(C)C[C@H](N)C(=O)O [leucine]
phosphorylation of rps6 ([1]; primary RSkMC, complete amino acid medium and minimal 12 amino acid mixture): stimulates phosphorylation of rps6 in primary RSkMC in a dose-dependent manner
phosphorylation of rps6 (relative alphascreen signal) ([1]; primary RSkMC, different Leucine concentrations): stimulates phorphorylation of rps6 in primary RSkMC in a dose-dependent manner
mTOR RPS6 pathway stimulation ([1]; primary cells from Soleus, gastrocnemius and extensor digitorum longus): stimulates mTOR RPS6 pathway using isolated primary cells in a dose dependent manner

SEQID-00143: nutritive polypeptide (LYLEEVSKNLVEINPLKLEVKAKPWFVYTPMHGVGFDIFSTIVKKTLCLVEGK; listed as Saccharomyces cerevisiae)
SGF Half-life (t½) [2]: 18 s

SEQID-00212: nutritive polypeptide (LEEAKKKLLKDVEVLSQRLEEKALAYDKLEKTKTRLQQELDDLLVDLDHQ; listed as Bos taurus)
SGF Half-life (t½) [2]: 18 s

SEQID-00215: nutritive polypeptide (KKLLKDVEVLSQRLEEKALAYDKLEKTKTRLQQELDDLLVDLDHQRQIVSNLEKK; listed as Bos taurus)
SGF Half-life (t½) [2]: 120 s

SEQID-00218: nutritive polypeptide (GTIENLEEAKKKLLKDVEVLSQRLEEKALAYDKLEKTKTRLQQELDDLLVDLDHQ; listed as Bos taurus)
SGF Half-life (t½) [2]: 360 s

SEQID-00237: nutritive polypeptide (EEDKVNTLTKAKTKLEQQVDDLEGSLEQEKKLRMDLERAKRKLEGDLKLA; listed as Bos taurus)
SGF Half-life (t½) [2]: 36 s
Tagg (pH 7.1) [3]: 45
